Reference: patent publication US9635859B2, “Pesticidal compositions and processes related thereto” (Dow AgroSciences LLC, priority 2012, dated 2017)

System: Beet Armyworm (Spodoptera exigua)
Assay: Bioassays on BAW, 128-well diet tray assay
Assay type: in vivo
Conditions: percent mortality, second instar larvae, 50 μg/cm^2 on artificial diet, five to seven days, 25° C.; Table 3
Description: Certain molecules disclosed in this document were tested against BAW and CEW and CL using procedures described in the following examples. In the reporting of the results, the “BAW & CEW & CL Rating Table” was used (See Table Section).
Bioassays on BAW (Spodoptera exigua)
Bioassays on BAW were conducted using a 128-well diet tray assay. one to five second instar BAW larvae were placed in each well (3 mL) of the diet tray that had been previously filled with 1 mL of artificial diet to which 50 μg/cm^2 of the test compound (dissolved in 50 μL of 90:10 acetone-water mixture) had been applied (to each of eight wells) and then allowed to dry. Trays were covered with a clear self-adhesive cover, and held at 25° C., 14:10 light-dark for five to seven days. Percent mortality was recorded for the larvae in each well; activity in the eight wells was then averaged. The results are indicated in the table entitled “Table 3: Assay Results” (See Table Section).

| SMILES | BAW Rating |
| --- | --- |
| Cc1cc(/C=C/C(c2cc(Cl)cc(Cl)c2)C(F)(F)F)ccc1C(=O)NCc1ccccc1F (centres unmarked) [AC9] | A (50-100) |
| Cc1cc(/C=C/C(c2cc(Cl)cc(Cl)c2)C(F)(F)F)ccc1C(=O)NC1CSC1 (centres unmarked) [AC10] | A (50-100) |
| Cc1cc(/C=C/C(c2cc(Cl)cc(Cl)c2)C(F)(F)F)ccc1C(=O)NCc1ccccc1 (centres unmarked) [AC11] | A (50-100) |
| Cc1cc(/C=C/C(c2cc(Cl)cc(Cl)c2)C(F)(F)F)ccc1C(=O)NCc1ccccn1 (centres unmarked) [AC12] | A (50-100) |
| Cc1cc(/C=C/C(c2cc(Cl)cc(Cl)c2)C(F)(F)F)ccc1C(=O)NC1CS(=O)(=O)C1 (centres unmarked) [AC13] | A (50-100) |
| Cc1cc(/C=C/C(c2cc(Cl)cc(Cl)c2)C(F)(F)F)ccc1C(=O)NCc1cnc(Cl)s1 (centres unmarked) [AC15] | A (50-100) |
| Cc1cc(/C=C/C(c2cc(Cl)cc(Cl)c2)C(F)(F)F)ccc1C(=O)NC(C)(C)c1ccccn1 (centres unmarked) [AC16] | A (50-100) |
| Cc1cc(/C=C/C(c2cc(Cl)cc(Cl)c2)C(F)(F)F)ccc1C(=O)NNc1ccccc1F (centres unmarked) [AC17] | A (50-100) |
| Cc1cc(/C=C/C(c2cc(Cl)cc(Cl)c2)C(F)(F)F)ccc1C(=O)NCc1ncccn1 (centres unmarked) [AC18] | A (50-100) |
| Cc1cc(/C=C/C(c2cc(Cl)cc(Cl)c2)C(F)(F)F)ccc1C(=O)NCc1ccoc1 (centres unmarked) [AC20] | A (50-100) |
| Cc1cc(/C=C/C(c2cc(Cl)c(Cl)c(Cl)c2)C(F)(F)F)ccc1C(=O)NCc1ccc(Cl)nc1 (centres unmarked) [AC22] | A (50-100) |
| Cc1cc(/C=C/C(c2cc(Cl)c(Cl)c(Cl)c2)C(F)(F)F)ccc1C(=O)NC1CSC1 (centres unmarked) [AC23] | A (50-100) |
| Cc1cc(/C=C/C(c2cc(Cl)c(Cl)c(Cl)c2)C(F)(F)F)ccc1C(=O)NCc1cnc(Cl)s1 (centres unmarked) [AC26] | A (50-100) |
| Cc1cc(/C=C/C(c2cc(Cl)c(Cl)c(Cl)c2)C(F)(F)F)ccc1C(=O)NC(C)(C)c1ccccn1 (centres unmarked) [AC27] | A (50-100) |
| O=C(NCc1ccc(Cl)nc1)c1ccc(/C=C/C(c2cc(Cl)c(Cl)c(Cl)c2)C(F)(F)F)cc1Cl (centres unmarked) [AC28] | A (50-100) |
| O=C(NC1CSC1)c1ccc(/C=C/C(c2cc(Cl)c(Cl)c(Cl)c2)C(F)(F)F)cc1Cl (centres unmarked) [AC29] | A (50-100) |
| O=C(NC1CS(=O)(=O)C1)c1ccc(/C=C/C(c2cc(Cl)c(Cl)c(Cl)c2)C(F)(F)F)cc1Cl (centres unmarked) [AC30] | A (50-100) |
| O=C(NCc1ccc(Cl)nc1)c1ccc(/C=C/C(c2cc(Cl)c(Cl)c(Cl)c2)C(F)(F)F)cc1Br (centres unmarked) [AC31] | A (50-100) |
| O=C(NC1CSC1)c1ccc(/C=C/C(c2cc(Cl)c(Cl)c(Cl)c2)C(F)(F)F)cc1Br (centres unmarked) [AC32] | A (50-100) |
| O=C(NC1CS(=O)(=O)C1)c1ccc(/C=C/C(c2cc(Cl)c(Cl)c(Cl)c2)C(F)(F)F)cc1Br (centres unmarked) [AC33] | A (50-100) |
| O=C(NC1CSC1)c1ccc(/C=C/C(c2cc(Cl)c(Cl)c(Cl)c2)C(F)(F)F)cc1C(F)(F)F (centres unmarked) [AC34] | A (50-100) |

| SMILES | BAW Rating |
| --- | --- |
| O=C(NC1CS(=O)(=O)C1)c1ccc(/C=C/C(c2cc(Cl)c(Cl)c(Cl)c2)C(F)(F)F)cc1C(F)(F)F (centres unmarked) [AC35] | A (50-100) |
| O=C(NCc1ccc(Cl)nc1)c1ccc(/C=C/C(c2cc(Cl)c(Cl)c(Cl)c2)C(F)(F)F)cc1C(F)(F)F (centres unmarked) [AC36] | A (50-100) |
| Cc1cc(/C=C/C(c2ccc(Cl)c(Cl)c2)C(F)(F)F)ccc1C(=O)NCc1ccc(Cl)nc1 (centres unmarked) [AC37] | A (50-100) |
| Cc1cc(/C=C/C(c2cc(Cl)c(F)c(Cl)c2)C(F)(F)F)ccc1C(=O)NCc1ccc(Cl)nc1 (centres unmarked) [AC38] | A (50-100) |
| Cc1cc(/C=C/C(c2cc(Cl)cc(Cl)c2)C(F)(F)F)ccc1C(=O)NCc1cncnc1 (centres unmarked) [AC39, 4-((E)-3-(3,5-Dichlorophenyl)-4,4,4-trifluorobut-1-enyl)-2-methyl-N-((pyrimidin-5-yl)methyl)benzamide] | A (50-100) |
| Cc1cc(/C=C/C(c2cc(Cl)cc(Cl)c2)C(F)(F)F)ccc1C(=O)NCC(=O)NC1CC1 (centres unmarked) [AC40] | A (50-100) |
| Cc1cc(/C=C/C(c2cc(Cl)cc(Cl)c2)C(F)(F)F)ccc1C(=O)NCC(=O)NC1CSC1 (centres unmarked) [AC41] | A (50-100) |
| Cc1cc(/C=C/C(c2cc(Cl)cc(Cl)c2)C(F)(F)F)ccc1C(=O)NCc1nc2ccccc2s1 (centres unmarked) [AC42] | A (50-100) |
| Cc1cc(/C=C/C(c2cc(Cl)cc(Cl)c2)C(F)(F)F)ccc1C(=O)NCc1cnccn1 (centres unmarked) [AC43] | A (50-100) |
| Cc1cc(/C=C/C(c2cc(Cl)cc(Cl)c2)C(F)(F)F)ccc1C(=O)NN(C)c1ccccc1F (centres unmarked) [AC45] | A (50-100) |
| Cc1cc(/C=C/C(c2cc(Cl)cc(Cl)c2)C(F)(F)F)ccc1C(=O)NCc1ccc(Cl)cc1 (centres unmarked) [AC48] | A (50-100) |
| O=C(NCc1ccc(Cl)nc1)c1ccc(/C=C/C(c2cc(Cl)cc(Cl)c2)C(F)(F)F)cc1F (centres unmarked) [AC49] | A (50-100) |
| Cc1cc(/C=C/C(c2cc(Cl)cc(Cl)c2)C(F)(F)F)ccc1C(=O)NCc1nccn1C (centres unmarked) [AC50] | A (50-100) |
| Cc1cc(/C=C/C(c2cc(Cl)cc(Cl)c2)C(F)(F)F)ccc1C(=O)NCC(=O)N(C)CC(F)(F)F (centres unmarked) [AC51] | A (50-100) |
| Cc1cc(/C=C/C(c2cc(Cl)c(F)c(Cl)c2)C(F)(F)F)ccc1C(=O)NC1CCOCC1 (centres unmarked) [AC52] | A (50-100) |
| Cc1cc(/C=C/C(c2cc(Cl)c(F)c(Cl)c2)C(F)(F)F)ccc1C(=O)NCc1ccc(Cl)cn1 (centres unmarked) [AC53] | A (50-100) |
| Cc1cc(/C=C/C(c2cc(Cl)c(F)c(Cl)c2)C(F)(F)F)ccc1C(=O)NCc1ccnc(Cl)c1 (centres unmarked) [AC54] | A (50-100) |
| CC(C)(C)OC(=O)CNC(=O)c1ccc(/C=C/C(c2cc(Cl)c(Cl)c(Cl)c2)C(F)(F)F)cc1Br (centres unmarked) [AC58] | A (50-100) |
| Cc1cc(/C=C/C(c2cc(Cl)cc(Cl)c2)C(F)(F)F)ccc1C(=O)Nc1ccc(Cl)nc1 (centres unmarked) [AC59] | A (50-100) |
| O=C(NC1CSC1)c1ccc(/C=C/C(c2cc(Cl)cc(Cl)c2)C(F)(F)F)cc1F (centres unmarked) [AC61] | A (50-100) |
| O=C(CNC(=O)c1ccc(/C=C/C(c2cc(Cl)cc(Cl)c2)C(F)(F)F)cc1F)NCC(F)(F)F (centres unmarked) [AC62] | A (50-100) |

| SMILES | BAW Rating |
| --- | --- |
| O=C(NCc1ccc(Cl)nc1)c1ccc(/C=C/C(c2cc(Cl)c(F)c(Cl)c2)C(F)(F)F)cc1Br (centres unmarked) [AC63] | A (50-100) |
| O=C(CNC(=O)c1ccc(/C=C/C(c2cc(Cl)c(Cl)c(Cl)c2)C(F)(F)F)cc1Cl)NCC(F)(F)F (centres unmarked) [AC64, (E)-2-Chloro-N-(2-oxo-2-((2,2,2-trifluoroethyl)amino)ethyl)-4-(4,4,4-trifluoro-3-(3,4,5-trichlorophenyl)but-1-en-1-yl)benzamide] | A (50-100) |
| O=C(NCc1ccc(Cl)nc1)c1ccc(/C=C/C(c2cc(Cl)c(F)c(Cl)c2)C(F)(F)F)cc1F (centres unmarked) [AC65] | A (50-100) |
| O=C(CNC(=O)c1ccc(/C=C/C(c2cc(Cl)c(Cl)c(Cl)c2)C(F)(F)F)cc1Br)NCC(F)(F)F (centres unmarked) [AC66] | A (50-100) |
| O=C(NC1CSC1)c1ccc(/C=C/C(c2cc(Cl)c(F)c(Cl)c2)C(F)(F)F)cc1F (centres unmarked) [AC67] | A (50-100) |
| O=C(CNC(=O)c1ccc(/C=C/C(c2cc(Cl)c(F)c(Cl)c2)C(F)(F)F)cc1F)NCC(F)(F)F (centres unmarked) [AC68] | A (50-100) |
| Cc1cc(/C=C/C(c2cc(Cl)c(F)c(Cl)c2)C(F)(F)F)ccc1C(=O)NCC(=O)NCC(F)(F)F (centres unmarked) [AC69] | A (50-100) |
| COc1cc(/C=C/C(c2cc(Cl)c(F)c(Cl)c2)C(F)(F)F)ccc1C(=O)NC1CSC1 (centres unmarked) [AC71] | A (50-100) |
| CCc1cc(/C=C/C(c2cc(Cl)c(F)c(Cl)c2)C(F)(F)F)ccc1C(=O)NCc1ccc(Cl)nc1 (centres unmarked) [AC72] | A (50-100) |
| O=C(NCc1ccc(C(F)(F)F)nc1)c1ccc(/C=C/C(c2cc(Cl)c(Cl)c(Cl)c2)C(F)(F)F)cc1Br (centres unmarked) [AC75] | A (50-100) |
| Cc1cc(/C=C/C(c2cc(Cl)c(F)c(Cl)c2)C(F)(F)F)ccc1C(=O)NCc1cc(Cl)ccn1 (centres unmarked) [AC77] | A (50-100) |
| Cc1cc(/C=C/C(c2cc(Cl)c(Cl)c(Cl)c2)C(F)(F)F)ccc1C(=O)NCC(=O)NCC(F)(F)F (centres unmarked) [AC78] | A (50-100) |
| O=C(CNC(=O)c1ccc(/C=C/C(c2cc(Cl)c(F)c(Cl)c2)C(F)(F)F)cc1Br)NCC(F)(F)F (centres unmarked) [AC79, (E)-2-Bromo-4-(3-(3,5-dichloro-4-fluorophenyl)-4,4,4-trifluorobut-1-en-1-yl)-N-(2-oxo-2-((2,2,2-trifluoroethyl)amino)ethyl)benzamide] | A (50-100) |
| CCc1cc(/C=C/C(c2cc(Cl)c(F)c(Cl)c2)C(F)(F)F)ccc1C(=O)NCC(=O)NCC(F)(F)F (centres unmarked) [AC80] | A (50-100) |
| Cc1cc(/C=C/C(c2cc(Cl)cc(Cl)c2)C(F)(F)F)ccc1C(=O)NCC(=O)NC1CS(=O)(=O)C1 (centres unmarked) [AC81] | A (50-100) |
| O=C(NC1CS(=O)(=O)C1)c1ccc(/C=C/C(c2cc(Cl)cc(Cl)c2)C(F)(F)F)cc1F (centres unmarked) [AC83, (E)-4-(3-(3,5-Dichlorophenyl)-4,4,4-trifluorobut-1-en-1-yl)-N-(1,1-dioxidothietan-3-yl)-2-fluorobenzamide] | A (50-100) |
| O=C(NC1CS(=O)(=O)C1)c1ccc(/C=C/C(c2cc(Cl)c(F)c(Cl)c2)C(F)(F)F)cc1F (centres unmarked) [AC84] | A (50-100) |
| COc1cc(/C=C/C(c2cc(Cl)c(F)c(Cl)c2)C(F)(F)F)ccc1C(=O)NC1CS(=O)(=O)C1 (centres unmarked) [AC85] | A (50-100) |
| CCc1cc(/C=C/C(c2cc(Cl)c(F)c(Cl)c2)C(F)(F)F)ccc1C(=O)NC1CS(=O)(=O)C1 (centres unmarked) [AC86] | A (50-100) |
| O=C(NC1C[S+]([O-])C1)c1ccc(/C=C/C(c2cc(Cl)c(F)c(Cl)c2)C(F)(F)F)cc1F (centres unmarked) [AC87] | A (50-100) |
